According to US20200079819A1, “Use of a Vaccine Targeting a Cryptic Tert Epitope, for Treating Lung Cancer in a HLA-A*0201-Positive Never-Smoker or Light-Former Smoker Patient” (Vaxon Biotech, priority 2017, published 2020):
No end group written: not given here.

System: T cells specific for the TERT572 peptide
Experiment: Immunomonitoring: IFNg ELISpot assay on PBMC of vaccinated patients
Type: in vivo, human

## Vx-001: vaccine composed of two nine-amino-acid peptides, TERT572 (SEQ ID No: 1) and TERT572Y (SEQ ID No: 2), administered separately with adjuvant Montanide ISA51 VG (chain 1 RLFFYRKSV; chain 2 YLFFYRKSV; not fully specified)
Vx-001 treated patients measured at least at W6, W18 or thereafter (22 of 75 patients)
  Patients who mounted a TERT572 specific immune response: 29.3%
Vx-001 treated patients with natural immunity
  Frequency of vaccine-induced immune response: 15%
Vx-001 treated patients with non-squamous (NSQ) NSCLC
  Patients who mounted a TERT572 specific immune response: 36%
Vx-001 treated patients with squamous (SQ) NSCLC
  Patients who mounted a TERT572 specific immune response: 13.3%
Vx-001 treated patients without natural immunity
  Frequency of vaccine-induced immune response: 36.2%
